From article PMC5995184, “Potent anti-leukemic activity of a specific cyclin-dependent kinase 9 inhibitor in mouse models of chronic lymphocytic leukemia” (Oncotarget, 2018) come the findings set out here.

Broadly, the IC50 is the midpoint of a concentration-inhibition curve. The low end stands for greater potency in that assay, the high end for weaker potency in that assay.

Series [1] concerns blood and splenic leukocytes of wild-type mice. Briefly: Wild-type littermate control mice, oral LDC526, blood and spleen analysis. Format: in vivo. From the text: Another widely used preclinical CLL model are TCL1 transgenic mice. The TCL1 transgenics represent a constitutive CLL model not involving the adoptive transfer of cells. This model mirrors the natural course of human IgVH-unmutated CLL including its disease progression. In addition, this model has also been widely used by others to test novel therapeutic molecules. […] Consecutive blood sampling allowed us to carry out a longitudinal study in individual TCL1 and control mice. For this, we chose a cohort of TCL1 and littermate control mice, which were 9-12 months old (Figure 5A). We chose TCL1 transgenics with high peripheral CLL cell (CD19+CD5+) counts (14.6±7.4/nl, mean±SEM). Given the presumably high leukemic burden in these aged TCL1 mice and the reduced general condition of some NSG mice receiving 75 mg/kg for 5 days we decided to dose TCL1 mice with 50 mg/kg daily for two consecutive days (Figure 5A). As the experiment was longitudinally designed and there was no effect expected of administering carrier to wild-type control mice we omitted this control group and established three experimental groups (Figure 5A). In order to minimize stress by collecting blood specimens we sampled blood three times, 8 days apart (days -5, +3 and +11; Figure 5A). Compared to blood smears prepared before commencing LDC526 treatment a marked decrease of peripheral blood leukocytes and CLL cells was observed two days post the last LDC526 administration to TCL1 transgenic mice (Figure 5B). In contrast to the carrier control treated TCL1 mice, white blood cell counts (WBC) dropped in LDC526-treated wild-type and TCL1 mice (Figure 5C). In comparison to wild-type control mice, where WBC dropped to 34% of baseline values, the WBC decrease in TCL1 mice was more dramatic dropping to 8% of baseline values (Figure 5D).
On day +11 (Figure 5A) the experiment was terminated as planned and spleens of the experimental mice were harvested. To be able to assess the impact of LDC526 on wild-type spleens we included n=3 of non-treated age-matched wild-type littermate mice as an additional experimental control group in the final spleen analysis. A caveat of this final spleen analysis posed the fact that in contrast to the longitudinal blood analysis, baseline spleen data of individual aged TCL1 mice were not available. As longitudinal analysis was not possible, we now compared spleen parameters between cohorts. Importantly, it is unknown to which extent the amount of circulating peripheral blood TCL1 CLL cells determined at baseline correlates with splenomegaly. […]
All mice were bred and housed at the University Hospital Essen animal care facility. […] Peripheral blood counts were determined with the VetABC analyzer (scil, Viernheim, Germany). […]

A further series addresses T1, CDK7-Cyclin H-MAT1 (Homo sapiens, UniProt P50613).
T1 construct: purchased Carna Biosciences
Nature of the series: FRET-based LANCE Ultra in vitro enzymatic kinase assay, CDK7. Format: biochemical. As for the experimental part: IC50 values for CDK inhibitors were determined using the fluorescence resonance energy transfer (FRET)-based LANCE Ultra KinaSelect Ser/Thr kit (Perkin Elmer). Kinase activity and inhibition were measured according to the manufacturer’s instructions and as previously described. […] FRET signals were recorded in a time-resolved manner in a Perkin Elmer EnVision reader. Purified cyclin-kinase pairs were obtained from the following suppliers: Carna Biosciences (CDK1-Cyclin B1, CDK6-Cyclin D3, CDK7-Cyclin H-MAT1), ProQinase (CDK2-Cyclin A) and Invitrogen (CDK9-Cyclin T1).
Data were analyzed with GraphPad Prism 7 software. Differences were assessed by unpaired or paired Student t tests if not indicated otherwise. Two-sided probabilities of less than 0.05 were considered significant. Nonlinear regression sigmoidal dose-response curve fit was used to determine the IC50 values and to generate graphs.
For orientation: TR-FRET usually uses a lanthanide donor and a delayed reading to cut background.

Molecules are shown by their SMILES. Bounds are passed on as bounds.

T1 sequence (P50613 whole entry): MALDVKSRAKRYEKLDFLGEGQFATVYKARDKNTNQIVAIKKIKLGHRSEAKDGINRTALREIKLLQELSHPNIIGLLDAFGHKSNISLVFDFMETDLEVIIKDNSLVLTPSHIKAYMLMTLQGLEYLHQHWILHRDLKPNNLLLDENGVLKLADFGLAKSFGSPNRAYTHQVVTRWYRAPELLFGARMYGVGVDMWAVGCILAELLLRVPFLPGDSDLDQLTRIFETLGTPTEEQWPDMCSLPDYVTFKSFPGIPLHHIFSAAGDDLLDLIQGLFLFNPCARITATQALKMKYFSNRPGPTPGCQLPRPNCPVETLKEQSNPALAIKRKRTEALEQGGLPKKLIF
T1 sequence (P51946 whole entry partner): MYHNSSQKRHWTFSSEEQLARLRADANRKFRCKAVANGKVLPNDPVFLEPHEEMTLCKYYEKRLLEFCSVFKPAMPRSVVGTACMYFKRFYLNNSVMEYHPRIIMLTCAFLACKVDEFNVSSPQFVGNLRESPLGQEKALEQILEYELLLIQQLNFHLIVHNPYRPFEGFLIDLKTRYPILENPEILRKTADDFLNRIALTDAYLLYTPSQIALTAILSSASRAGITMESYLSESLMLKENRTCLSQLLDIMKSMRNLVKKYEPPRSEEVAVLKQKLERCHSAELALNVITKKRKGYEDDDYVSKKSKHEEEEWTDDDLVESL
T1 sequence (P51948 whole entry partner): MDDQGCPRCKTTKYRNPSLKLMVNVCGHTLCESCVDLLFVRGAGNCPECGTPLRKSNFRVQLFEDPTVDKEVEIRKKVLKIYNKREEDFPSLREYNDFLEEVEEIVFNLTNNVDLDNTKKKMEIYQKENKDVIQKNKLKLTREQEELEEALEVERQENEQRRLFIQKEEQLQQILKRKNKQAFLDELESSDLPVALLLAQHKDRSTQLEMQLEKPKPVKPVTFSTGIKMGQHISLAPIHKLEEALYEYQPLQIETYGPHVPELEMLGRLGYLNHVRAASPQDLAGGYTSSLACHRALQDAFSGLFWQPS

Regarding `COc1cc(F)ccc1-c1ncnc(Nc2cccc(CS(N)(=O)=O)c2)n1` [LDC526, (3-((4-(4-fluoro-2-methoxyphenyl)-1,3,5-triazin-2-yl)amino)phenyl)methane-sulfonamide], the “WBC, percent of baseline values” in series [1] (50 mg/kg daily for two days, day +3) was found to be 34%. In addition, the “concentration of wild-type blood T cells” value in series [1] (50 mg/kg for two days) is given as “halved”. In addition, the “splenic B cell numbers, percent of untreated mice” value in series [1] (day +11) came to 31%. Also, the “B cells, percent of baseline levels” value in series [1] (peripheral blood) is 3.7%. In addition, the half-maximal inhibitory concentration (IC50) on CDK7-Cyclin H-MAT1 was over 10 µM.
